Experiments:
caspase 3 [1] = experiment: Western blot of caspase 3 levels; format: cell-based, rat; conditions: polyamine depleted cells (DFMO)
Experimental: Total cell protein (50 μg) from cell extracts prepared for caspase 3 assay was separated on 15% SDS-PAGE and transferred to nitrocellulose membranes for western blotting. Equal loading of protein was confirmed by staining the nitrocellulose membrane with Ponceau S (Sigma, St. Louis, Mo.). The membrane was then probed with an antibody directed against caspase 3 (CPP32) (Santa Cruz Biotechnology, Santa Cruz, Calif.). The immunocomplexes were visualized by the enhanced chemiluminescence detection system.

IEC-6 cells [2] = experiment: Intracellular polyamines by HPLC; format: cell-based, rat; conditions: for level of putrescine in the cells / level of spermidine in the cells / level of spermine in the cells: cells grown in presence of DFMO or DEGBG
Experimental: IEC-6 cells were grown for 4 days in the presence or absence of DFMO (Marion Merrel Dow, Cincinnati, Ohio) the highly specific inhibitor of ODC. DFMO treatment depletes putrescine within 3 hours. Depletion of spermidine requires 24 hours and significant depletion (about 50%) of spermine requires 3 days.
Intracellular polyamines were analyzed by high performance liquid chromatography. Cells were plated in 60 mm dishes at 6.25×10^4 cells/cm^2 and grown in DMEM/dFBS with or without DFMO or DEGBG. After washing the monolayer three times with ice-cold DPBS, 0.5 M perchloric acid was added and the samples were then frozen at −80° C. until ready for extraction, dansylation, and HPLC. The standard curve encompassed the range of 0.31-10 μM. Values that fell >25% below the curve were considered not detectable. The level of […] was determined by the Bradford method, as described in Anal. Biochem., 72:248-254 (1976).

IEC-6 cells [3] = experiment: Floating cell count (detachment-induced cell death, apoptosis); format: cell-based, rat; conditions: for number of floating cells compared to control: FIG. 4; for floating cells (percentage of total cell count): camptothecin exposure
Experimental: IEC-6 cells, having the ATCC designation CRL-1592, were obtained from the American Type Culture Collection at passage 13. The IEC-6 cells are normal, non-cancerous intestinal epithelial cells derived from fetal rat crypt cells. These cells are non-tumorigenic and retain the undifferentiated character of epithelial stem cells. The IEC-6 cell stock was maintained in T-150 flasks in a humidified, 37° C. incubator in an atmosphere of 90:10 air:CO2. The medium used was Dulbecco's modified Eagle medium (DMEM) (Gibco BRL, Grand Island, N.Y.) with 5% heat inactivated fetal bovine serum (FBS) (Sigma, St. Louis, Mo.) and 10 μg insulin and 50 μg gentamicin sulfate per ml. The stock was passaged weekly at 1:10, fed 3 times per week, and passages 15-20 were used. The cells were plated on day 0 at a density of 6.25×10^4 cells/cm^2 in T-150 flasks in DMEM/dFBS (dialyzed fetal bovine serum with 10,000 molecular weight cut-off) (Sigma, St. Louis, Mo.) with or without the treatment compound or compounds described in the Examples that follow. The cells were fed on day 2. On day 3, medium was removed and replaced with serum-free medium. On day 4, camptothecin (Sigma, St. Louis, Mo.) in a DMSO vehicle was added to a concentration of 20 μM into the serum-free medium containing the cells of Example 1 for 3 to 18 hours, with the vehicle (DMSO) added to controls. Detachment-induced cell death (DICD) is a well recognized form of apoptosis in anchorage-dependent cell types, such as intestinal epithelial cells. Floating cells were poured into a 25 ml tube and the monolayer was washed once with HBSS without calcium and magnesium. This wash was then combined into the tube with the floating cells. Attached cells were taken up with 0.05% trypsin plus 0.53 MM EDTA, followed by one wash of the flask with DMEM/5% FBS. Cell counts were determined separately for floating and attached cells by counting on a Model ZF Coulter counter. Floating cells were expressed as a percentage of the total cell count obtained by combining the number of floating and attached cells.

caspase 3 [4] = experiment: Caspase 3 activity assay (DEVD-pNA) in cell lysates; format: cell-based, rat; conditions: for caspase 3 activity over time, attached cells: camptothecin exposure 0 to 18 hours, control cells or DFMO treated cells
Experimental: In a separate flask, following camptothecin or DMSO addition, the cells were harvested after 16 hours in order to obtain a sufficient number of floating cells for analysis. Floating cells were then poured off to be counted and were combined with one wash with cold DPBS (Sigma, St. Louis, Mo.). The attached cells were then harvested for determination of caspase activity. 10 ml of DPBS was added to the flask and the monolayer was scraped and collected into a 25 ml tube. The flask was washed once with 10 ml of DPBS and combined into the 25 ml tube. The cells were pelleted by centrifugation at 800× g for 5 minutes. The supernatant was discarded and the pellet was resuspended in 1 ml of cold DPBS and transferred into a microfuge tube. The cells were pelleted by centrifugation at 10,000× g at 4° C. for 10 minutes. The supernatant was discarded and the cells were lysed in 100 ml of ice cold cell lysis buffer (50 mM HEPES, pH 7.4, 0.1% CHAPS, 1 mM DTT, 0.1 mM EDTA, 0.1% NP40) (Sigma, St. Louis, Mo.). The assay for caspase activity was carried out in a 96-well plate. Into each well was placed 20 μl of cell lysate, 70 μl of assay buffer (50 mM HEPES, pH 7.4, 0.1% CHAPS, 100 mM NaCl, 10 mM DTT, 1 mM EDTA ) and 10 μl of caspase 3 calorimetric substrate (2 mM DEVD-pNA prepared in assay buffer, a caspase specific peptide that is conjugated to the chromogen p-nitroanilide) (Biomol Research Laboratories, Plymouth Meeting, Pa.). The 96-well plate was incubated at 37° C. for 2 hours, during which time the caspase in the sample was allowed to cleave the chromophore pNA from the substrate molecule. Absorbance readings at 405 nm were made after the 2 hour incubation, with the caspase activity being directly proportional to the color reaction. Protein was determined for each sample using the BCA method (Pierce, Rockford, Ill.) and a standard curve for p-nitroanilide was carried out. Results for caspase activity were expressed as pmol of pNA released/mg protein/minute.

CaCo-2 cells [5] = experiment: Floating cell count in cancerous cells; format: cell-based, human
Experimental: Cancerous human intestinal CaCo-2 cells were grown in similar culture media as described in Example 1, except that one group of the cells was grown in a medium not containing DFMO and another group was grown in a medium containing DFMO. After four days of growth, camptothecin at a dose of 20 μM was added to the culture medium of each of the groups. After 6 hours, the number of floating cells in the media of the two groups of cells was determined. The study was repeated using a different inducer of apoptosis, a combination of 20 ng/ml of tumor necrosis factor-α (TNF-α) and 25 μg/ml of cycloheximide.

mast cell tumor = experiment: Dog with mast cell tumor treated with Co60 gamma radiation; format: in vivo; conditions: DFMO 100 mg/kg/day orally for four days, adult dog
Experimental: DFMO at a dosage of 100 mg/kg/day is administered orally for four days to an adult dog suffering from a mast cell tumor on one of its rear legs. The tumor is treated in multiple sessions by exposure to Co^60 gamma radiation as indicated for this type of tumor. The field of exposure to the radiation exceeds the boundaries of the tumor.

CaCo-2 cells [6] = experiment: Examples 1 to 8 repeated in cancerous cells; format: cell-based, human; conditions: CaCo-2 cells substituted for IEC-6
Description: Studies described in Examples 1 to 8 are repeated, except that cancerous human intestinal CaCo-2 cells (ATCC no. HTB37) are substituted for the IEC-6 rat intestinal cell lines.

caspase 3 [7] = conditions: putrescine up to 5 μM added to cell extracts from DFMO treated cells
IEC-6 cells [8] = experiment: Nucleosomal DNA fragmentation assay; format: cell-based, rat; conditions: camptothecin 20 μM
Experimental: Cells were collected for determining the presence or absence of DNA fragmentation. After treatment with camptothecin (or vehicle), floating cells were poured off and combined with one DPBS wash of the monolayer. […] The attached cells were collected for DNA fragmentation by scraping in DPBS and combining with one wash of the flask with DPBS. […] The nucleosomal fragmentation assay was carried out by isolating DNA from the cells using the TACS apoptotic DNA laddering kit (Trevigen, Gaithersburg, Md.) and analyzing the labeled DNA by agarose gel electrophoresis following the manufacturer's instructions.

[9] = 0 time, control cells or DFMO treated cells
[10] = 18 hours, control cells or DFMO treated cells
[11] = cells grown 4 days with DFMO, 6 hours after camptothecin

SMILES: NCCCC(N)(C(=O)O)C(F)F (racemic) [DFMO, DL-œ-difluoromethylornithine]
- level of caspase 3 (Western blot) compared with controls (caspase 3 [1]): not significantly different
- time required for depletion of spermidine (IEC-6 cells [2]; DFMO treatment of IEC-6 cells): 24 h
- time required for significant depletion of spermine (IEC-6 cells [2]; DFMO treatment of IEC-6 cells): 3 days
- time to depletion of putrescine (IEC-6 cells [2]; DFMO treatment of IEC-6 cells): ≤ 3 h
- depletion of spermine (IEC-6 cells [2]; DFMO treatment, 3 days): about 50%
- level of putrescine in the cells (IEC-6 cells [2]): decreases
- level of spermidine in the cells (IEC-6 cells [2]): decreases
- level of spermine in the cells (IEC-6 cells [2]): decreases
- number of floating cells compared to control (IEC-6 cells [3]; DFMO alone): decreased the number of floating cells
- delay of onset of apoptosis (IEC-6 cells [3]; DFMO treated cells exposed to camptothecin): up to 12 hours
- floating cells (percentage of total cell count) (IEC-6 cells [3]; [9]): 2.2%
- floating cells (percentage of total cell count) (IEC-6 cells [3]; 12 hours, DFMO treated cells): 9.3%
- floating cells (percentage of total cell count) (IEC-6 cells [3]; [10]): 29.1%
- decrease in the number of floating cells compared to control cells treated with camptothecin (IEC-6 cells [3]; [11]): ~3 fold
- protection against apoptosis (IEC-6 cells [3]; cells grown 4 days with DFMO, DMSO (vehicle) or camptothecin, 6 hours): protected against both DMSO (vehicle) and camptothecin-induced apoptosis
- percentage of floating cells (IEC-6 cells [3]; day 1 of treatment): 19.2%
- percentage of floating cells (IEC-6 cells [3]; day 2 of treatment): 12.4%
- percentage of floating cells (IEC-6 cells [3]; day 4 of treatment): 2.2%
- exposure to camptothecin after which significant increase in caspase 3 activity was observed (caspase 3 [4]; DFMO treated cells): 18 h
- caspase 3 activity over time, attached cells (caspase 3 [4]): did not show remarkable increases in caspase 3 activity for up to 12 hours
- lower caspase 3 activity compared to control (caspase 3 [4]; [11]): approximately 50%
- protection of cancerous cells from apoptosis (CaCo-2 cells [5]; apoptosis induced by camptothecin or TNF-α + cycloheximide): did not protect the cancerous cells from apoptosis
- number of floating cells (CaCo-2 cells [5]; with DFMO 4 days, 20 ng/ml TNF-α and 25 μg/ml cycloheximide): 6.2 +/− .6
- number of floating cells (CaCo-2 cells [5]; with DFMO 4 days, camptothecin 20 μM, 6 hours): 3.7 +/− .24
- number of floating cells (CaCo-2 cells [5]; with DFMO 4 days, no TNF-α + cycloheximide): 4.8 +/− .5
- number of floating cells (CaCo-2 cells [5]; with DFMO 4 days, no camptothecin): 3.1 +/− .06
- death of surrounding normal tissues (mast cell tumor): visually noticeable decrease in death of the surrounding normal tissues
- effect on tumor (mast cell tumor): the tumor is killed
- inhibition of apoptosis (CaCo-2 cells [6]): No inhibition of apoptosis is observed

SMILES: NCCCCN [putrescine]
- number of floating cells compared to control (IEC-6 cells [3]; exogenous 10 μM putrescine along with DFMO): restored the number of floating cells to control levels
- effect on caspase activity (caspase 3 [7]): did not reveal any effect

SMILES: CCC(=NNC(=N)N)C(CC)=NNC(=N)N [DEGBG, diethylglyoxal bis-(guanylhydrazone)]
- level of putrescine in the cells (IEC-6 cells [2]): significantly increased
- level of spermidine in the cells (IEC-6 cells [2]): decreasing
- level of spermine in the cells (IEC-6 cells [2]): decreasing
- percentage of floating cells (IEC-6 cells [3]; day 1 of treatment): 26.6%
- percentage of floating cells (IEC-6 cells [3]; day 2 of treatment): 26.9%
- percentage of floating cells (IEC-6 cells [3]; day 4 of treatment): 23.3%

SMILES: CC[C@@]1(O)C(=O)OCc2c1cc1n(c2=O)Cc2cc3ccccc3nc2-1 [camptothecin]
- increase in the number of floating cells compared to DMSO control group (IEC-6 cells [3]; camptothecin 20 μM, within 6 hours): 8 fold
- floating cells (percentage of total cell count) (IEC-6 cells [3]; [9]): 6.2%
- floating cells (percentage of total cell count) (IEC-6 cells [3]; [10]): 49.3%
- onset of camptothecin induced apoptosis (number of floating cells) (IEC-6 cells [3]; control cells (no DFMO)): ≤ 3 h
- caspase 3 activity, detached cells (caspase 3 [4]; camptothecin 20 μM, detached (floating) cells): increased caspase 3 activity
- increase in caspase 3 activity, attached cells (caspase 3 [4]; camptothecin 20 μM, harvested after 16 hours, attached cells): 7 fold
- caspase 3 activity over time, attached cells (caspase 3 [4]): increased progressively with time
- number of floating cells (CaCo-2 cells [5]; no DFMO, camptothecin 20 μM, 6 hours): 2.7 +/− .06
- DNA fragmentation, attached cells (IEC-6 cells [8]; attached cells): did not show remarkable DNA fragmentation
- DNA fragmentation, detached cells (IEC-6 cells [8]; detached (floating) cells): showed characteristic nucleosomal DNA fragments

Reference: US6936637B2, “Prevention of apoptosis in non-cancerous cells” (University of Tennessee Research Foundation, priority 1999, dated 2005)
